PubChem BioAssay (NCI)
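At the GI50, growth is halved. TGI: concentration producing complete growth inhibition.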

What was measured:
Assay in all cases: NCI tumour cell line growth inhibition, 384-well format
MALME-3M melanoma = test system: MALME-3M melanoma
HL-60(TB) leukemia = test system: HL-60(TB) leukemia
NCI-H322M lung = test system: NCI-H322M lung
HOP-62 NSCLC = test system: HOP-62 NSCLC
MDA-MB-435 melanoma = test system: MDA-MB-435 melanoma
PC-3 prostate = test system: PC-3 prostate
OVCAR-4 ovarian = test system: OVCAR-4 ovarian
A549 NSCLC = test system: A549 NSCLC
UACC-62 melanoma = test system: UACC-62 melanoma
OVCAR-3 ovarian = test system: OVCAR-3 ovarian
MDA-MB-231 breast = test system: MDA-MB-231 breast
NCI-H23 lung = test system: NCI-H23 lung
A498 renal = test system: A498 renal
TK-10 renal = test system: TK-10 renal
786-0 renal = test system: 786-0 renal
HCC-2998 colon = test system: HCC-2998 colon
RPMI-8226 leukemia = test system: RPMI-8226 leukemia
CCRF-CEM leukemia = test system: CCRF-CEM leukemia
U251 glioblastoma = test system: U251 glioblastoma
OVCAR-8 ovarian = test system: OVCAR-8 ovarian
NCI-H460 NSCLC = test system: NCI-H460 NSCLC
SK-OV-3 ovarian = test system: SK-OV-3 ovarian
T-47D breast = test system: T-47D breast
SK-MEL-28 melanoma = test system: SK-MEL-28 melanoma
HS 578T breast = test system: HS 578T breast
UACC-257 melanoma = test system: UACC-257 melanoma
SW-620 colon = test system: SW-620 colon
SN12C renal = test system: SN12C renal
DU-145 prostate = test system: DU-145 prostate
COLO 205 colon = test system: COLO 205 colon
NCI-H226 lung = test system: NCI-H226 lung
HCT-15 colon = test system: HCT-15 colon
SK-MEL-5 melanoma = test system: SK-MEL-5 melanoma
CAKI-1 renal = test system: CAKI-1 renal
KM12 colon = test system: KM12 colon
HCT-116 colon = test system: HCT-116 colon
MCF7 breast = test system: MCF7 breast
SR leukemia = test system: SR leukemia
SNB-75 CNS = test system: SNB-75 CNS
ACHN renal = test system: ACHN renal
EKVX NSCLC = test system: EKVX NSCLC
IGROV1 ovarian = test system: IGROV1 ovarian
SF-295 CNS = test system: SF-295 CNS
NCI/ADR-RES ovarian = test system: NCI/ADR-RES ovarian
HT29 colon = test system: HT29 colon
SF-268 CNS = test system: SF-268 CNS
MOLT-4 leukemia = test system: MOLT-4 leukemia
SF-539 CNS = test system: SF-539 CNS
BT-549 breast = test system: BT-549 breast
MDA-MB-468 breast = test system: MDA-MB-468 breast
SNB-19 CNS = test system: SNB-19 CNS
NCI-H522 lung = test system: NCI-H522 lung
RXF 393 renal = test system: RXF 393 renal
LOX IMVI melanoma = test system: LOX IMVI melanoma
UO-31 renal = test system: UO-31 renal
HOP-92 NSCLC = test system: HOP-92 NSCLC
K-562 leukemia = test system: K-562 leukemia
M14 melanoma = test system: M14 melanoma

## CC(C)(O)CS(=O)(=O)Nc1ccc2c(c1)CCN(C(=O)COc1cccnc1)C2
MALME-3M melanoma
  GI50: 83.5 nM
  TGI: 258 nM
HL-60(TB) leukemia
  GI50: < 10 nM
  TGI: < 10 nM
NCI-H322M lung
  GI50: 10.9 nM
  TGI: 38.9 nM
HOP-62 NSCLC
  GI50: 25 nM
  TGI: 52.2 nM
MDA-MB-435 melanoma
  GI50: 20 nM
  TGI: 34.6 nM
PC-3 prostate
  GI50: 10.8 nM
  TGI: 23.2 nM
OVCAR-4 ovarian
  GI50: 31.3 nM
  TGI: 78.2 nM
A549 NSCLC
  GI50: 234 nM
  TGI: 494 nM
UACC-62 melanoma
  GI50: 31.3 nM
  TGI: 74.9 nM
OVCAR-3 ovarian
  GI50: < 10 nM
  TGI: 12.2 nM
MDA-MB-231 breast
  GI50: 43.5 nM
  TGI: 135 nM
NCI-H23 lung
  GI50: 29.1 nM
  TGI: 78.7 nM
A498 renal
  GI50: 390 nM
  TGI: 3610 nM
TK-10 renal
  GI50: 32.3 nM
  TGI: 92 nM
786-0 renal
  GI50: 18.6 nM
  TGI: 34 nM
HCC-2998 colon
  GI50: 21.7 nM
  TGI: 42.1 nM
RPMI-8226 leukemia
  GI50: 43.6 nM
  TGI: 163 nM
CCRF-CEM leukemia
  GI50: < 10 nM
  TGI: < 10 nM
U251 glioblastoma
  GI50: < 10 nM
  TGI: 12.8 nM
OVCAR-8 ovarian
  GI50: < 10 nM
  TGI: < 10 nM
NCI-H460 NSCLC
  GI50: 239 nM
  TGI: 435 nM
SK-OV-3 ovarian
  GI50: 10 nM
  TGI: 23.6 nM
T-47D breast
  GI50: < 10 nM
  TGI: < 10 nM
SK-MEL-28 melanoma
  GI50: 22.8 nM
  TGI: 43.4 nM
HS 578T breast
  GI50: 17.3 nM
  TGI: 32.4 nM
UACC-257 melanoma
  GI50: 143 nM
  TGI: 590 nM
SW-620 colon
  GI50: < 10 nM
  TGI: < 10 nM
SN12C renal
  GI50: < 10 nM
  TGI: < 10 nM
DU-145 prostate
  GI50: 22.6 nM
  TGI: 45.9 nM
COLO 205 colon
  GI50: < 10 nM
  TGI: < 10 nM
NCI-H226 lung
  GI50: 871 nM
  TGI: 26000 nM
HCT-15 colon
  GI50: 33.9 nM
  TGI: 108 nM
SK-MEL-5 melanoma
  GI50: 20.8 nM
  TGI: 40.3 nM
CAKI-1 renal
  GI50: 20.4 nM
  TGI: 37.9 nM
KM12 colon
  GI50: 17.3 nM
  TGI: 43.2 nM
HCT-116 colon
  GI50: < 10 nM
  TGI: < 10 nM
MCF7 breast
  GI50: 23.1 nM
  TGI: 48 nM
SR leukemia
  GI50: 29 nM
  TGI: 60.4 nM
SNB-75 CNS
  GI50: 17.8 nM
  TGI: 32.6 nM
ACHN renal
  GI50: 37 nM
  TGI: 127 nM
EKVX NSCLC
  GI50: 46.4 nM
  TGI: 164 nM
IGROV1 ovarian
  GI50: 19 nM
  TGI: 34.2 nM
SF-295 CNS
  GI50: 29.5 nM
  TGI: 74.7 nM
NCI/ADR-RES ovarian
  GI50: 145 nM
  TGI: 279 nM
HT29 colon
  GI50: 36 nM
  TGI: 102 nM
SF-268 CNS
  GI50: 20 nM
  TGI: 35 nM
MOLT-4 leukemia
  GI50: < 10 nM
  TGI: < 10 nM
SF-539 CNS
  GI50: < 10 nM
  TGI: < 10 nM
BT-549 breast
  GI50: 21.6 nM
  TGI: 40.1 nM
MDA-MB-468 breast
  GI50: 21.7 nM
  TGI: 39.7 nM
SNB-19 CNS
  GI50: 14.9 nM
  TGI: 29.6 nM
NCI-H522 lung
  GI50: < 10 nM
  TGI: < 10 nM
RXF 393 renal
  GI50: 18.3 nM
  TGI: 35.6 nM
LOX IMVI melanoma
  GI50: 33.1 nM
  TGI: 170 nM
UO-31 renal
  GI50: 19.5 nM
  TGI: 35.7 nM
HOP-92 NSCLC
  GI50: 121 nM
  TGI: 320 nM
K-562 leukemia
  GI50: < 10 nM
  TGI: 10.9 nM
M14 melanoma
  GI50: 19.1 nM
  TGI: 33.6 nM
